Assay results from US7476764B2, “Phenylcarboxyamides as beta-secretase inhibitors” (Bristol-Myers Squibb Company, priority 2005, dated 2009).
Counter-ions that a name gives are not always drawn.

molecular target: T1, BACE1 enzyme (Homo sapiens, UniProt P56817); test: Radioligand displacement assay with a radiolabeled BACE inhibitor on HEK293-9B.A1 cell homogenate; type: binding; settings: displacement of 1 nM tritiated radioligand, HEK293-9B.A1 homogenate, pH 5.0, 1.5 hr at 25° C.; read-out: Activity Rating (activity based on IC50 values)
T1 construct: The HEK293-9B.A1 cell line, which overexpresses the BACE1 enzyme, was derived from HEK293 cells; endogenous in cells; washed 48,000 x g pellet of the cell homogenate
Method: Radioligand displacement assays with a radiolabeled BACE inhibitor (WO 2004 013098, compound 3, where the methoxy group is substituted for C(^3H)3) were carried out using standard methods (Keen, M. (1999) in Receptor Binding Techniques (Walker, J. M. ed) p. 106 Humana Press, Totowa, N.J.). The HEK293-9B.A1 cell line, which overexpresses the BACE1 enzyme, was derived from HEK293 cells (Simmons, N. L. (1990) A cultured human renal epitheloid cell line responsive to vasoactive intestinal peptide. Exp. Physiol. 75:309-19.) by RAGE™ (Harrington, J. J. et al. (2001) Creation of genome-wide protein expression libraries using random activation of gene expression. Nat. Biotechnol. 19:440-5; U.S. Pat. Nos. 6,410,266 and 6,361,972). T225 flask cultures of HEK293-9B.A1 were grown to 80% confluency in DMEM supplemented with 2 mM L-glutamine, 10 μg/ml penicillin, 10 μg/ml streptomycin, 3 μg/ml puromycin, 100 nM methotrexate, and 10% fetal bovine serum (Invitrogen, Carlsbad, Calif.), harvested, and resuspended at 2×10^8 cells per 10 ml of lysis buffer consisting of 50 mM HEPES pH 7.0 containing a protease inhibitor cocktail of AEBSF 104 μM, aprotinin 80 nM, leupeptin 2 μM, bestatin 4 μM, pepstatin A 1.5 μM, and E-64 1.4 μM (0.1% of protease inhibitor cocktail P8340, Sigma-Aldrich, St. Louis, Mo.) at 4° C. The resuspended cells were homogenized using a Polytron (Brinkman, Westbury, N.Y.) at setting 6 for 10 sec., then centrifuged at 48,000×g for 10 min. The resulting pellet was washed by repeating the resuspension, homogenization and centrifugation steps. The final pellet was resuspended in buffer at 4° C. to yield a total protein concentration of 5 mg/ml, then aliquots were frozen in liquid nitrogen for further storage at −70° C. Immediately before carrying out a binding assay, an aliquot of cell homogenate was thawed and diluted to a concentration of 100 μg/ml in assay buffer consisting of 50 mM HEPES pH 5.0 and 0.1% CHAPSO. Assays were initiated in polypropylene 96-well plates (Costar, Cambridge, Mass.) by the addition of 200 μl of cell homogenate to 50 μl of assay buffer containing 1 nM radioligand (WO 2004 013098, compound 3, where the methoxy group is substituted for C(^3H)3: 80 Ci/mMol) and various concentrations of unlabelled compounds, and incubated for 1.5 hr. at 25° C. Separation of bound from free radioligand was by filtration on GFF glass fiber filters (Innotech Biosystems International, Lansing, Mich.) using an Innotech cell harvester.

T1 sequence (P56817 46-501): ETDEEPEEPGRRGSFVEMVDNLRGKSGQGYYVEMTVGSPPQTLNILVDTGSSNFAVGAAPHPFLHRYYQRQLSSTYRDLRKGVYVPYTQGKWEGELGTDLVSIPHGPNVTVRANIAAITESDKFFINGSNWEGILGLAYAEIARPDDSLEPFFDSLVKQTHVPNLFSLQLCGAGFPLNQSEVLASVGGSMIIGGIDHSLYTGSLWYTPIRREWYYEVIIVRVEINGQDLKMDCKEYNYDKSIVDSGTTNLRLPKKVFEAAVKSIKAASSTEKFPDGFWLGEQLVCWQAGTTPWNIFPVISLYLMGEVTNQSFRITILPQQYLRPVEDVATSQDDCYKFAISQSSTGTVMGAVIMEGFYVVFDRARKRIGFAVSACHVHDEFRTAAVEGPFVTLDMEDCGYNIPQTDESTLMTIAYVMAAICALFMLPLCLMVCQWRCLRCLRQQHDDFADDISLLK

`CCCN(CCC)C(=O)c1cc(C(C)=O)cc(C(=O)N[C@@H](Cc2cc(F)cc(F)c2)[C@H](O)CNCc2cccc(OC)c2)c1` [Example 1, N^1-((2S,3R)-4-(3-methoxybenzylamino)-1-(3,5-difluorophenyl)-3-hydroxybutan-2-yl)-5-acetyl-N^3,N^3-dipropylisophthalamide TFA salt] and `CCCN(CCC)C(=O)c1cc(C(=O)N[C@@H](Cc2cc(F)cc(F)c2)[C@H](O)CNCc2cccc(OC)c2)cc(/C(C)=N/O)c1` [Example 5, N^1-((2S,3R)-4-(3-methoxybenzylamino)-1-(3,5-difluorophenyl)-3-hydroxybutan-2-yl)-5-((E)-1-(hydroxyimino)ethyl)-N^3,N^3-dipropylisophthalamide hydrochloride] cannot be ordered by IC50: < 0.1 µM for the first, < 0.1 µM for the second.

`CCCN(CCC)C(=O)c1cc(C(=O)N[C@@H](Cc2cc(F)cc(F)c2)[C@H](O)CNCc2cccc(OC)c2)cc(C(C)O)c1` (stereo partly drawn) [Example 2, N^1-((2S,3R)-4-(3-methoxybenzylamino)-1-(3,5-difluorophenyl)-3-hydroxybutan-2-yl)-5-(1-hydroxyethyl)-N^3,N^3-dipropylisophthalamide TFA salt] and `CCCN(C)C(=O)c1cc(C(=O)N[C@@H](Cc2cc(F)cc(F)c2)[C@H](O)CNCc2cccc(OC)c2)cc(C(C)O)c1` (stereo partly drawn) [Example 15, hydrochloride] cannot be ordered by IC50: < 0.1 µM for the first, < 0.1 µM for the second.

`CCCN(CCC)C(=O)c1cc(C(=O)N[C@@H](Cc2cc(F)cc(F)c2)[C@H](O)CNCc2cccc(OC)c2)cc(/C(C)=N/OC)c1` [Example 3, N^1-((2S,3R)-4-(3-methoxybenzylamino)-1-(3,5-difluorophenyl)-3-hydroxybutan-2-yl)-5-((E)-1-(methoxyimino)ethyl)-N^3,N^3-dipropylisophthalamide TFA salt] and `CCCN(CCC)C(=O)c1cc(C(=O)N[C@@H](Cc2cc(F)cc(F)c2)[C@H](O)CNCc2cccc(OC)c2)cc(/C(C)=N/OCC(C)C)c1` [Example 6, N^1-((2S,3R)-4-(3-methoxybenzylamino)-1-(3,5-difluorophenyl)-3-hydroxybutan-2-yl)-5-((E)-1-(isobutoxyimino)ethyl)-N^3,N^3-dipropylisophthalamide TFA salt] cannot be ordered by IC50: < 0.1 µM for the first, < 0.1 µM for the second.

`CCCN(CCC)C(=O)c1cc(C(=O)N[C@@H](Cc2cc(F)cc(F)c2)[C@H](O)CNCc2cccc(OC)c2)cc(/C(C)=N/OCc2ccccc2)c1` [Example 4, N^1-((2S,3R)-4-(3-methoxybenzylamino)-1-(3,5-difluorophenyl)-3-hydroxybutan-2-yl)-5-((E)-1-(benzyloxyimino)ethyl)-N^3,N^3-dipropylisophthalamide TFA salt] and `CCCN(C)C(=O)c1cc(C(=O)N[C@@H](Cc2cc(F)cc(F)c2)[C@H](O)CNCc2cccc(OC)c2)cc(/C(C)=N/OCc2ccccc2)c1` [Example 11, N^1-((2S,3R)-4-(3-methoxybenzylamino)-1-(3,5-difluorophenyl)-3-hydroxybutan-2-yl)-5-((E)-1-(benzyloxyimino)ethyl)-N^3-methyl-N^3-propylisophthalamide hydrochloride] cannot be ordered by IC50: < 0.1 µM for the first, < 0.1 µM for the second.

`C=CCO/N=C(\C)c1cc(C(=O)N[C@@H](Cc2cc(F)cc(F)c2)[C@H](O)CNCc2cccc(OC)c2)cc(C(=O)N(CCC)CCC)c1` [Example 7, N^1-((2S,3R)-4-(3-methoxybenzylamino)-1-(3,5-difluorophenyl)-3-hydroxybutan-2-yl)-5-((E)-1-(allyloxyimino)ethyl)-N^3,N^3-dipropylisophthalamide TFA salt] and `C=CCO/N=C(\C)c1cc(C(=O)N[C@@H](Cc2cc(F)cc(F)c2)[C@H](O)CNCc2cccc(OC)c2)cc(C(=O)N(C)CCC)c1` [Example 13, N^1-((2S,3R)-4-(3-methoxybenzylamino)-1-(3,5-difluorophenyl)-3-hydroxybutan-2-yl)-5-((E)-1-(allyloxyimino)ethyl)-N^3-methyl-N^3-propylisophthalamide hydrochloride] cannot be ordered by IC50: < 0.1 µM for the first, < 0.1 µM for the second.

`CCCN(C)C(=O)c1cc(C(C)=O)cc(C(=O)N[C@@H](Cc2cc(F)cc(F)c2)[C@H](O)CNCc2cccc(OC)c2)c1` [Example 8, N^1-((2S,3R)-4-(3-methoxybenzylamino)-1-(3,5-difluorophenyl)-3-hydroxybutan-2-yl)-5-acetyl-N^3-methyl-N^3-propylisophthalamide TFA salt] and `CCCN(C)C(=O)c1cc(C(=O)N[C@@H](Cc2cc(F)cc(F)c2)[C@H](O)CNCc2cccc(OC)c2)cc(/C(C)=N/O)c1` [Example 9, N^1-((2S,3R)-4-(3-methoxybenzylamino)-1-(3,5-difluorophenyl)-3-hydroxybutan-2-yl)-5-((E)-1-(hydroxyimino)ethyl)-N^3-methyl-N^3-propylisophthalamide hydrochloride] cannot be ordered by IC50: < 0.1 µM for the first, < 0.1 µM for the second.

`CCCN(C)C(=O)c1cc(C(=O)N[C@@H](Cc2cc(F)cc(F)c2)[C@H](O)CNCc2cccc(OC)c2)cc(/C(C)=N/OC)c1` [Example 10, N^1-((2S,3R)-4-(3-methoxybenzylamino)-1-(3,5-difluorophenyl)-3-hydroxybutan-2-yl)-5-((E)-1-(methoxyimino)ethyl)-N^3-methyl-N^3-propylisophthalamide hydrochloride] and `CCCO/N=C(\C)c1cc(C(=O)N[C@@H](Cc2cc(F)cc(F)c2)[C@H](O)CNCc2cccc(OC)c2)cc(C(=O)N(C)CCC)c1` [Example 14, N^1-((2S,3R)-4-(3-methoxybenzylamino)-1-(3,5-difluorophenyl)-3-hydroxybutan-2-yl)-N^3-methyl-5-((E)-1-(propoxyimino)ethyl)-N^3-propylisophthalamide] cannot be ordered by IC50: < 0.1 µM for the first, < 0.1 µM for the second.

First: CCCN(C)C(=O)c1cc(C(=O)N[C@@H](Cc2cc(F)cc(F)c2)[C@H](O)CNCc2cccc(OC)c2)cc(/C(C)=N/OCC(C)C)c1 [Example 12, N^1-((2S,3R)-4-(3-methoxybenzylamino)-1-(3,5-difluorophenyl)-3-hydroxybutan-2-yl)-5-((E)-1-(isobutoxyimino)ethyl)-N^3-methyl-N^3-propylisophthalamide hydrochloride]
Second: CO/N=C(\C)c1cc(C(=O)N[C@@H](Cc2cc(F)cc(F)c2)[C@H](O)CNCc2cccc(OC)c2)cc(S(C)(=O)=O)c1 [Example 17, N-((2S,3R)-4-(3-methoxybenzylamino)-1-(3,5-difluorophenyl)-3-hydroxybutan-2-yl)-3-((E)-1-(methoxyimino)ethyl)-5-(methylsulfonyl)benzamide TFA salt]
The IC50 of the first is lower: < 0.1 µM for the first, 0.1 to 1 µM for the second. The first is the more potent here.

`COc1cccc(CNC[C@@H](O)[C@H](Cc2cc(F)cc(F)c2)NC(=O)c2cc(C(C)=O)cc(S(C)(=O)=O)c2)c1` [Example 16, N^1-((2S,3R)-4-(3-methoxybenzylamino)-1-(3,5-difluorophenyl)-3-hydroxybutan-2-yl)-3-acetyl-5-(methylsulfonyl)benzamide TFA salt] and `COc1cccc(CNC[C@@H](O)[C@H](Cc2cc(F)cc(F)c2)NC(=O)c2cc(/C(C)=N/OCc3ccccc3)cc(S(C)(=O)=O)c2)c1` [Example 18, N-((2S,3R)-4-(3-methoxybenzylamino)-1-(3,5-difluorophenyl)-3-hydroxybutan-2-yl)-3-((E)-1-(benzyloxyimino)ethyl)-5-(methylsulfonyl)benzamide TFA salt] fall in the same range of IC50: 0.1 to 1 µM for the first, 0.1 to 1 µM for the second.
